Data published in patent US12458572B2, “Homogeneous liquid composition comprising 1,2-octanediol and use thereof” (Minasolve SAS, priority 2020, dated 2025).
Like-named read-outs stand apart in the source and are kept apart here.

Legend:
[1] = log POW, n-octanol/water partition coefficient, OECD Test No. 117; assay type: physicochemical
Experimental: The partition coefficient between n-octanol and water, also called ‘log POW’ and performed according to OECD Test No. 117 at 25° C., of 1,2-octanediol is 2.1. […] A specialist trained in the art could therefore expect that a mixture of water, 1,2-octanediol and hydrophilic short chain alkanediols and/or alkanetriols would form a hydrophilic phase containing water, and a separate lipophilic phase containing 1,2-octanediol.
The miscibility of 1,2-octanediol with C3-C4 alkanediols is well-known. However, comparably large amounts of these diols are needed for lowering the melting point of 1,2-octanediol below 15° C. Furthermore, C3-C4 polyols are highly hydrophilic components with a log POW of ≤0, as detailed in the following table (Table 1).

[2] = Solubility in 1,2-octanediol; assay type: physicochemical
Experimental: The solubility of water in 1,2-octanediol exceeds 30% at 40° C. However, mixtures of 1,2-octanediol with water tend to form highly viscous gels at ambient temperature which are hard to handle.
Glycerol, with glycerine and 1,2,3-trihydroxypropane as well-known alternative names, is a C3 alkanetriol. The solubility of glycerol in 1,2-octanediol exceeds 30%. However, mixtures of 1,2-octanediol and glycerol tend to be highly viscous and might separate at low temperatures. Furthermore, the addition of high amounts of glycerol to skin care formulations may cause a sticky skin-feel.

Row | SMILES | log POW (25° C.) [1] | log POW (25° C.) ([1]; OECD Test No. 117 at 25° C.) | solubility of glycerol in 1,2-octanediol [2]
1 | OCCCCO [1,4-butanediol] | −0.88 |  | 
2 | CCCCCCC(O)CO (stereo not shown) [1,2-octanediol] |  | 2.1 | 
3 | CC(CO)CO [2-methyl-1,3-propanediol] |  | −0.6 | 
4 | OCC(O)CO [1,2,3-trihydroxypropane] | −1.75 |  | exceeds 30%
5 | OCCCO [1,3-propanediol] |  | 0.71 | 
6 | CC(O)CO (stereo not shown) [1,2-propanediol] | 1.07 |  | 
7 | CC(O)CCO (stereo not shown) [1,3-butanediol] |  | −0.92 | 
8 | CCC(O)CO (stereo not shown) [1,2-butanediol] |  | −0.59 | 
9 | CC(O)C(C)O (stereo not shown) [2,3-butanediol] | −0.92 |  | 
